{"source": "paper PMC5218480", "about": "(PLoS ONE, 2017)", "test_system": "MV-4-11 cells", "experiment": "Gene expression microarray analysis (Affymetrix PrimeView) and GSEA", "assay_type": "cell-based, human", "design": "RFU PODN (11730768_x_at) / Fold change /veh PODN (11730768_x_at) / RFU LINC00158 (11744669_a_at) / Fold change /veh LINC00158 (11744669_a_at) / RFU DUSP10 (11751237_a_at) / Fold change /veh DUSP10 (11751237_a_at) / RFU ID3 (11757404_x_at) / Fold change /veh ID3 (11757404_x_at) / RFU PLEKHG5 (11737974_s_at) / Fold change /veh PLEKHG5 (11737974_s_at) / RFU LRRC4B (11730491_at) / Fold change /veh LRRC4B (11730491_at) / RFU GIMAP4 (11747438_a_at) / Fold change /veh GIMAP4 (11747438_a_at) / RFU KRT8 (11758183_x_at) / Fold change /veh KRT8 (11758183_x_at) / RFU CNN1 (11734310_a_at) / Fold change /veh CNN1 (11734310_a_at) / RFU VPS37D (11726825_at) / Fold change /veh VPS37D (11726825_at) / RFU C10orf10 (11716522_x_at) / Fold change /veh C10orf10 (11716522_x_at) / RFU KIR2DL2 /// KIR2DL4 /// KIR2DL5A /// KIR2DL5B /// KIR2DS1 /// KIR2DS2 /// KIR2DS3 /// KIR2DS4 /// KIR3DL3 /// KIR3DL3 /// KIR3DS1 (11738374_at) / Fold change /veh KIR2DL2 /// KIR2DL4 /// KIR2DL5A /// KIR2DL5B /// KIR2DS1 /// KIR2DS2 /// KIR2DS3 /// KIR2DS4 /// KIR3DL3 /// KIR3DL3 /// KIR3DS1 (11738374_at) / RFU C1QL1 (11718748_at) / Fold change /veh C1QL1 (11718748_at) / RFU TMPRSS4 (11747572_a_at) / Fold change /veh TMPRSS4 (11747572_a_at) / RFU HAMP (11756126_x_at) / Fold change /veh HAMP (11756126_x_at) / RFU RNFT2 (11725882_a_at) / Fold change /veh RNFT2 (11725882_a_at) / RFU NR4A2 (11747474_a_at) / Fold change /veh NR4A2 (11747474_a_at) / RFU ABCC12 (11746883_a_at) / Fold change /veh ABCC12 (11746883_a_at) / RFU TMEM136 (11760407_x_at) / Fold change /veh TMEM136 (11760407_x_at) / RFU CLDN22 /// WWC2 (11732394_at) / Fold change /veh CLDN22 /// WWC2 (11732394_at) / RFU HLA-DPB1 (11760878_x_at) / Fold change /veh HLA-DPB1 (11760878_x_at) / RFU SPINT1 (11716480_a_at) / Fold change /veh SPINT1 (11716480_a_at) / RFU GAP43 (11754022_s_at) / Fold change /veh GAP43 (11754022_s_at) / RFU A4GNT (11735810_at) / Fold change /veh A4GNT (11735810_at) / RFU PRB3 (11715151_x_at) / Fold change /veh PRB3 (11715151_x_at) / RFU TUBB4B (11761932_at) / Fold change /veh TUBB4B (11761932_at) / RFU CAPN14 (11732068_a_at) / Fold change /veh CAPN14 (11732068_a_at) / RFU TMCC2 (11721928_a_at) / Fold change /veh TMCC2 (11721928_a_at) / RFU IRGQ (11745062_a_at) / Fold change /veh IRGQ (11745062_a_at) / RFU FAM174B (11720279_a_at) / Fold change /veh FAM174B (11720279_a_at) / RFU TMPRSS4 (11748680_a_at) / Fold change /veh TMPRSS4 (11748680_a_at) / RFU FAM212B (11763350_a_at) / Fold change /veh FAM212B (11763350_a_at) / RFU PLEKHG5 (11743358_a_at) / Fold change /veh PLEKHG5 (11743358_a_at) / RFU ZSCAN30 (11745921_a_at) / Fold change /veh ZSCAN30 (11745921_a_at) / RFU CMKLR1 (11741424_a_at) / Fold change /veh CMKLR1 (11741424_a_at) / RFU LOC101060620 /// MAPK8IP1 (11723275_at) / Fold change /veh LOC101060620 /// MAPK8IP1 (11723275_at) / RFU SPTSSB (11747773_x_at) / Fold change /veh SPTSSB (11747773_x_at) / RFU PRSS12 (11739890_at) / Fold change /veh PRSS12 (11739890_at) / RFU BIN1 (11741810_x_at) / Fold change /veh BIN1 (11741810_x_at) / RFU WNT11 (11732464_a_at) / Fold change /veh WNT11 (11732464_a_at) / RFU C10orf10 (11716521_a_at) / Fold change /veh C10orf10 (11716521_a_at) / RFU C5orf56 (11738089_at) / Fold change /veh C5orf56 (11738089_at) / RFU CYB561 (11721691_x_at) / Fold change /veh CYB561 (11721691_x_at) / RFU ANKRD19P (11752326_a_at) / Fold change /veh ANKRD19P (11752326_a_at) / RFU OR2T12 /// OR2T33 /// OR2T8 (11738714_s_at) / Fold change /veh OR2T12 /// OR2T33 /// OR2T8 (11738714_s_at) / RFU VCAN (11748164_a_at) / Fold change /veh VCAN (11748164_a_at) / RFU JSRP1 (11732532_at) / Fold change /veh JSRP1 (11732532_at) / RFU KRTAP10-11 (11738290_x_at) / Fold change /veh KRTAP10-11 (11738290_x_at) / RFU MYO3A (11730013_a_at) / Fold change /veh MYO3A (11730013_a_at) / RFU EBF3 (11725865_a_at) / Fold change /veh EBF3 (11725865_a_at) / RFU CAMK2N1 (11719241_x_at) / Fold change /veh CAMK2N1 (11719241_x_at) / RFU C5orf56 (11738088_a_at) / Fold change /veh C5orf56 (11738088_a_at) / RFU OLFML3 (11715873_a_at) / Fold change /veh OLFML3 (11715873_a_at) / RFU LOC100653217 /// NTM (11731650_a_at) / Fold change /veh LOC100653217 /// NTM (11731650_a_at) / RFU MAPK11 (11762145_a_at) / Fold change /veh MAPK11 (11762145_a_at) / RFU FIZ1 (11724087_x_at) / Fold change /veh FIZ1 (11724087_x_at) / RFU OASL (11726364_x_at) / Fold change /veh OASL (11726364_x_at) / RFU SOX15 (11748057_x_at) / Fold change /veh SOX15 (11748057_x_at) / RFU CD79A (11719716_a_at) / Fold change /veh CD79A (11719716_a_at) / RFU HIST1H1D (11736915_at) / Fold change /veh HIST1H1D (11736915_at) / RFU CASKIN2 (11723855_a_at) / Fold change /veh CASKIN2 (11723855_a_at) / RFU LOC730098 (11760151_x_at) / Fold change /veh LOC730098 (11760151_x_at) / RFU OR4N2 (11742367_at) / Fold change /veh OR4N2 (11742367_at) / RFU PRRT2 (11749266_a_at) / Fold change /veh PRRT2 (11749266_a_at) / RFU SNX32 (11753110_a_at) / Fold change /veh SNX32 (11753110_a_at) / RFU CDHR5 (11726645_a_at) / Fold change /veh CDHR5 (11726645_a_at) / RFU RCAN1 (11760418_a_at) / Fold change /veh RCAN1 (11760418_a_at) / RFU FAM167A (11723789_a_at) / Fold change /veh FAM167A (11723789_a_at) / RFU FAM26E (11764081_at) / Fold change /veh FAM26E (11764081_at) / RFU ISYNA1 (11749810_s_at) / Fold change /veh ISYNA1 (11749810_s_at) / RFU ACY1 (11761880_at) / Fold change /veh ACY1 (11761880_at) / RFU 11764098_at / Fold change /veh 11764098_at / RFU SAMD14 (11745864_x_at) / Fold change /veh SAMD14 (11745864_x_at) / RFU NPB (11741838_a_at) / Fold change /veh NPB (11741838_a_at) / RFU TMPRSS6 (11731388_a_at) / Fold change /veh TMPRSS6 (11731388_a_at) / RFU KRTAP10-2 (11738614_at) / Fold change /veh KRTAP10-2 (11738614_at) / RFU ARHGAP8 /// PRR5-ARHGAP8 (11727945_x_at) / Fold change /veh ARHGAP8 /// PRR5-ARHGAP8 (11727945_x_at) / RFU KRTAP5-7 /// NADSYN1 (11734609_at) / Fold change /veh KRTAP5-7 /// NADSYN1 (11734609_at) / RFU RASL12 (11751679_a_at) / Fold change /veh RASL12 (11751679_a_at) / RFU CDKN2B (11736163_a_at) / Fold change /veh CDKN2B (11736163_a_at) / RFU PRF1 (11729649_at) / Fold change /veh PRF1 (11729649_at) / RFU, ZNF638 /// ZNF638-IT1 / Fold change vs veh, ZNF638 /// ZNF638-IT1 / RFU, PANK3 / Fold change vs veh, PANK3 / RFU, SH3YL1 / Fold change vs veh, SH3YL1 / RFU, ZEB2 / Fold change vs veh, ZEB2 / RFU, NRIP1 / Fold change vs veh, NRIP1 / RFU, PTTG1IP / Fold change vs veh, PTTG1IP / RFU, CAPN2 / Fold change vs veh, CAPN2 / RFU, MED14 / Fold change vs veh, MED14 / RFU, SNORA58 / Fold change vs veh, SNORA58 / RFU, C1orf63 / Fold change vs veh, C1orf63 / RFU, LRRFIP1 / Fold change vs veh, LRRFIP1 / RFU, NDUFAF7 / Fold change vs veh, NDUFAF7 / RFU, SLC12A2 / Fold change vs veh, SLC12A2 / RFU, IBTK / Fold change vs veh, IBTK / RFU, ESF1 / Fold change vs veh, ESF1 / Fold change vs veh, TMEM50B / RFU, TAOK1 / Fold change vs veh, TAOK1 / RFU, ACBD3 / Fold change vs veh, ACBD3 / RFU, TMA16 / Fold change vs veh, TMA16 / RFU, RWDD3 / Fold change vs veh, RWDD3 / RFU, BCAT1 / Fold change vs veh, BCAT1 / RFU, EDEM3 / Fold change vs veh, EDEM3 / RFU, TMEM33 / Fold change vs veh, TMEM33 / RFU, WDR75 / Fold change vs veh, WDR75 / RFU, AHCTF1 / Fold change vs veh, AHCTF1 / RFU, TFRC / Fold change vs veh, TFRC / RFU, ZDHHC17 / Fold change vs veh, ZDHHC17 / RFU, NOM1 / Fold change vs veh, NOM1 / RFU, ARL8B / Fold change vs veh, ARL8B / RFU, ZBTB11 / Fold change vs veh, ZBTB11 / RFU, TAMM41 / Fold change vs veh, TAMM41 / RFU, KIAA1704 /// LOC100996395 / Fold change vs veh, KIAA1704 /// LOC100996395 / RFU, ING1 / Fold change vs veh, ING1 / RFU, TRMT61B / Fold change vs veh, TRMT61B / RFU, FUBP3 / Fold change vs veh, FUBP3 / RFU, TP53 / Fold change vs veh, TP53 / RFU, TNKS2 / Fold change vs veh, TNKS2 / RFU, ZFP14 / Fold change vs veh, ZFP14 / RFU, ACTR2 / Fold change vs veh, ACTR2 / RFU, PPP3R1 / Fold change vs veh, PPP3R1 / RFU, PIK3R1 / Fold change vs veh, PIK3R1 / RFU, HNRNPA1 / Fold change vs veh, HNRNPA1 / RFU, RNF170 / Fold change vs veh, RNF170 / RFU, ZNF28 / Fold change vs veh, ZNF28 / RFU, RNGTT / Fold change vs veh, RNGTT / RFU, OGT / Fold change vs veh, OGT / RFU, BRD1 / Fold change vs veh, BRD1 / RFU, MARS / Fold change vs veh, MARS / RFU, ZNF655 / Fold change vs veh, ZNF655 / RFU, FAHD1 / Fold change vs veh, FAHD1 / RFU, BDP1 / Fold change vs veh, BDP1 / RFU, LRRCC1 / Fold change vs veh, LRRCC1 / RFU, ARID1A / Fold change vs veh, ARID1A / RFU, ZNF146 / Fold change vs veh, ZNF146 / RFU, ZNF330 / Fold change vs veh, ZNF330 / RFU, GPN3 / Fold change vs veh, GPN3 / RFU, C9orf123 / Fold change vs veh, C9orf123 / RFU, N4BP2L2 / Fold change vs veh, N4BP2L2 / RFU, ARFIP1 / Fold change vs veh, ARFIP1 / RFU, FAM179B / Fold change vs veh, FAM179B / RFU, BCL10 / Fold change vs veh, BCL10 / RFU, UHRF1BP1L / Fold change vs veh, UHRF1BP1L / RFU, BET1 / Fold change vs veh, BET1 / RFU, CNOT2 / Fold change vs veh, CNOT2 / RFU, ZNF268 / Fold change vs veh, ZNF268 / Fold change vs veh, ZNF507 / RFU, DGCR2 / Fold change vs veh, DGCR2 / RFU, WDSUB1 / Fold change vs veh, WDSUB1 / Fold change vs veh, HSP90B1 /// MIR3652 / RFU, ADSS / Fold change vs veh, ADSS / RFU, GK / Fold change vs veh, GK / RFU, ZNF148 / Fold change vs veh, ZNF148 / RFU, TAF9 / Fold change vs veh, TAF9 / RFU, SLC1A5 / Fold change vs veh, SLC1A5 / RFU, SLMO2 / Fold change vs veh, SLMO2 / RFU, ABCC4 / Fold change vs veh, ABCC4 / RFU, LOC101060439 /// RAP1B / Fold change vs veh, LOC101060439 /// RAP1B / RFU, RFX7 / Fold change vs veh, RFX7 / RFU, GTPBP10 / Fold change vs veh, GTPBP10 / RFU, CNEP1R1 / Fold change vs veh, CNEP1R1 / RFU, BIVM-ERCC5 /// ERCC5 / Fold change vs veh, BIVM-ERCC5 /// ERCC5 / RFU, ILF3 / Fold change vs veh, ILF3 / RFU 11762660_at / Fold change /veh 11762660_at / RFU VCAN (11757783_s_at) / Fold change /veh VCAN (11757783_s_at) / RFU DDX43 (11728927_at) / Fold change /veh DDX43 (11728927_at) / RFU KRT8 (11758188_x_at) / Fold change /veh KRT8 (11758188_x_at) / RFU NKD1 (11759106_at) / Fold change /veh NKD1 (11759106_at) / RFU SRD5A1 (11742802_a_at) / Fold change /veh SRD5A1 (11742802_a_at) / RFU TPSAB1 /// TPSB2 (11721975_s_at) / Fold change /veh TPSAB1 /// TPSB2 (11721975_s_at) / RFU GSTM3 (11746129_a_at) / Fold change /veh GSTM3 (11746129_a_at) / RFU IL23R (11737362_x_at) / Fold change /veh IL23R (11737362_x_at) / RFU TMEM51 (11727254_a_at) / Fold change /veh TMEM51 (11727254_a_at) / RFU PIWIL2 (11732686_x_at) / Fold change /veh PIWIL2 (11732686_x_at) / RFU ORM1 (11744905_x_at) / Fold change /veh ORM1 (11744905_x_at) / RFU CCDC152 (11743942_at) / Fold change /veh CCDC152 (11743942_at) / RFU ECM1 (11717891_a_at) / Fold change /veh ECM1 (11717891_a_at) / RFU IL23R (11748794_a_at) / Fold change /veh IL23R (11748794_a_at) / RFU TNFAIP8L3 (11732012_x_at) / Fold change /veh TNFAIP8L3 (11732012_x_at) / RFU MBOAT4 (11741988_at) / Fold change /veh MBOAT4 (11741988_at) / RFU 11764193_at / Fold change /veh 11764193_at / RFU TMEM53 (11763286_at) / Fold change /veh TMEM53 (11763286_at) / RFU MAGEB2 (11727129_at) / Fold change /veh MAGEB2 (11727129_at) / RFU TMEM200A (11744735_a_at) / Fold change /veh TMEM200A (11744735_a_at) / RFU CCDC152 (11751479_a_at) / Fold change /veh CCDC152 (11751479_a_at) / RFU FAM211A (11726209_a_at) / Fold change /veh FAM211A (11726209_a_at) / RFU RGS16 (11746705_a_at) / Fold change /veh RGS16 (11746705_a_at) / RFU VCAN (11755009_s_at) / Fold change /veh VCAN (11755009_s_at) / RFU RHOB (11743442_s_at) / Fold change /veh RHOB (11743442_s_at) / RFU RGS16 (11720943_a_at) / Fold change /veh RGS16 (11720943_a_at) / RFU RGS16 (11720944_at) / Fold change /veh RGS16 (11720944_at) / RFU, VPS4B / Fold change vs veh, VPS4B / RFU, CREB1 / Fold change vs veh, CREB1 / RFU, DNAJC13 / Fold change vs veh, DNAJC13 / RFU, GNAQ / Fold change vs veh, GNAQ / RFU, CDK5R1 / Fold change vs veh, CDK5R1 / RFU, ZRANB3 / Fold change vs veh, ZRANB3 / RFU, CUL4A / Fold change vs veh, CUL4A / RFU, CCNY / Fold change vs veh, CCNY / RFU, UFL1 / Fold change vs veh, UFL1 / RFU, COG3 / Fold change vs veh, COG3 / RFU, DIAPH2 / Fold change vs veh, DIAPH2 / RFU, SKA2 / Fold change vs veh, SKA2 / RFU, AFF3 / Fold change vs veh, AFF3 / RFU, LMF1 / Fold change vs veh, LMF1 / RFU, IPO11 / Fold change vs veh, IPO11 / RFU, DFFB / Fold change vs veh, DFFB / RFU, FOXP1 / Fold change vs veh, FOXP1 / RFU, CARD8 / Fold change vs veh, CARD8 / RFU, STRN3 / Fold change vs veh, STRN3 / RFU, ADK / Fold change vs veh, ADK / RFU, RASSF2 / Fold change vs veh, RASSF2 / RFU, WIPF1 / Fold change vs veh, WIPF1 / RFU, LARP1B / Fold change vs veh, LARP1B / RFU, RASA1 / Fold change vs veh, RASA1 / RFU, RB1 / Fold change vs veh, RB1 / RFU, PPFIA1 / Fold change vs veh, PPFIA1 / RFU, MAT2A / Fold change vs veh, MAT2A / RFU, CCT5 / Fold change vs veh, CCT5 / RFU, WDR92 / Fold change vs veh, WDR92 / RFU, CUX1 / Fold change vs veh, CUX1 / RFU, TTC7A / Fold change vs veh, TTC7A / RFU, TMEM135 / Fold change vs veh, TMEM135 / RFU, DEPTOR / Fold change vs veh, DEPTOR / RFU, CPM / Fold change vs veh, CPM / RFU, DNAJB6 / Fold change vs veh, DNAJB6 / RFU, CACNA2D3 / Fold change vs veh, CACNA2D3 / RFU, DTX4 / Fold change vs veh, DTX4 / RFU, TFCP2 / Fold change vs veh, TFCP2 / RFU, GMCL1 /// GMCL1P1 / Fold change vs veh, GMCL1 /// GMCL1P1 / RFU, AEBP2 / Fold change vs veh, AEBP2 / RFU, SNHG1 /// SNORD22 /// SNORD25 /// SNORD26 /// SNORD27 /// SNORD28 /// SNORD29 /// SNORD31 / Fold change vs veh, SNHG1 /// SNORD22 /// SNORD25 /// SNORD26 /// SNORD27 /// SNORD28 /// SNORD29 /// SNORD31 / Fold change (Aza/veh), C12orf56 (ProbeSet 11735607_a_at) / Fold change (ACY-1035/veh), C12orf56 (ProbeSet 11735607_a_at) / Fold change (Aza/veh), FGFR1OP (ProbeSet 11751329_s_at) / Fold change (ACY-1035/veh), FGFR1OP (ProbeSet 11751329_s_at) / Fold change (Aza/veh), VPS36 (ProbeSet 11739960_a_at) / Fold change (ACY-1035/veh), VPS36 (ProbeSet 11739960_a_at) / RFU SYPL1 (11715823_x_at) / Fold change /veh SYPL1 (11715823_x_at) / RFU IGFBP7 (11715501_s_at) / Fold change /veh IGFBP7 (11715501_s_at) / RFU REEP3 (11722064_at) / Fold change /veh REEP3 (11722064_at) / RFU IGLL1 (11728026_x_at) / Fold change /veh IGLL1 (11728026_x_at): dose or concentration left out as unconfirmed", "conditions": "MV-4-11 cells, 48 hours", "data": [{"smiles": "Nc1ccc(-c2cccs2)cc1NC(=O)c1ccc2c(c1)cc(C1CC1)n2CCN1CCOCC1", "note": "[ACY-1035]", "values": [{"measurement": "Fold change /veh ECM1 (11717891_a_at)", "result": 0.95}]}]}
